Where a name gives a salt, the structure may show the parent alone. Read-outs that look alike come from different tables or passages of the source. Marks after values point to notes of the source that are not given here.
Experiments:
[1] = biological target: GTP-KRAS-G12D:SOS1 (Homo sapiens (Human), UniProt P01116, G12D); experiment: GTP-KRAS-G12D:SOS1 binding inhibition
Experimental: (§1) The IC50 of the compounds was fitted using a nonlinear regression equation with GraphPad Prism 8. The results are presented in Table 2: • Negative control: DMSO • Positive control: 100 μM BI-2852
(§2) The following nonlinear fitting formula was used to obtain the IC50 (half-maximal inhibitory concentration) of the compounds:
(§3) [formula] • X: logarithm of the compound concentration • Y: 665/615 Ratio

[2] = biological target: GTP-KRAS-WT:SOS1 (Homo sapiens (Human), UniProt P01116); experiment: KRAS_WT and SOS1 binding inhibition (KRAS-WT/SOS1 binding kit, 665/615 ratio); conditions: GTP 10 μM
Text: To detect the inhibitory capability of small molecule compounds on the binding activity between KRAS_WT and SOS1 using a drug screening system based on the binding of KRAS_WT and SOS1 interaction.
a) BI-2852 was used as a positive control, with its stock solution as the first dilution point, followed by a 3-fold dilution, making a total of 10+0 dilutions. Similarly, the first dilution point of the test compounds was also their respective stock solutions, followed by a 3-fold dilution, making a total of 11+0 dilutions. Using Echo, 0.2 μL of the gradient-diluted compound solutions were transferred into a 384-well plate, with each compound tested in duplicate. The final DMSO concentration was 1%. The plate was centrifuged at 1000 rpm for 1 minute. The final concentrations of the positive controls were 100, 33.33, 11.11, 3.70, 1.23, 0.412, 0.137, 0.046, 0.015, 0.005, and 0 μM. The final concentrations of the test compounds were […], 0.01, and 0 μM.
b) KRAS_WT from the kit was prepared with GTP at a final concentration of 10 μM in the dilution buffer, and 5 μL was transferred into the 384-well reaction plate. The plate was centrifuged at 1000 rpm for 1 minute.
c) Subsequently, 5 μL of the SOS1 mixture was transferred into the 384-well reaction plate. The plate was centrifuged at 1000 rpm for 1 minute and incubated at 25° C. for 15 minutes.
d) 10 μL of the detection mixture was transferred into the 384-well reaction plate. The plate was centrifuged at 1000 rpm for 1 minute and incubated overnight at 4° C.
e) The […] and emission wavelength at 615 nm were read using an Envision multimode plate reader. The 665/615 ratio signal intensity was used to characterize the enzyme activity.
as §1, §2, §3

[3] = biological target: GTP-KRAS-G12D:CRAF (Homo sapiens (Human), UniProt P01116, G12D); experiment: GTP-KRAS-G12D:CRAF binding inhibition
Experimental: The IC50 of the compounds was fitted using a nonlinear regression equation with GraphPad Prism 8. The results are presented in Table 2: • Negative control: DMSO • Positive control: 100 μM BI-2852 The following nonlinear fitting formula was used to obtain the IC50 (half-maximal inhibitory concentration) of the compounds: [formula] • X: logarithm of the compound concentration • Y: 665/615 Ratio

[4] = In vivo bioavailability experiment in mice (pharmacokinetics); conditions: ICR mice; for clearance / half-life / MRT / Vd / bioavailability: mouse, plasma; for MRT: read-out: Mean residence time; for Vd: read-out: Steady-state volume of distribution
Experimental: Experimental Animals: ICR mice, weighing 20 grams, provided by Sino-British SIPPR Lab Animal Ltd, Shanghai. The compound to be tested was accurately weighed and dissolved in DMSO to prepare a stock solution with a concentration of 15 mg/mL. The compound stock solution was accurately measured and diluted with 0.9% saline and Solutol in a ratio of 8.8:1 to a concentration of 0.3 mg/mL. The solution was clear and transparent, used for intravenous administration. Additionally, the compound was accurately weighed and mixed with 0.5% CMC-Na to a concentration of 0.5 mg/mL, used for oral gavage administration. Intravenous group: Three ICR mice, weighing 20 g+2 g, were intravenously administered the intravenous dosing solution. The dosing volume was 10 mL/kg, with a dose of 3 mg/kg. Blood samples (0.03 mL) were collected from the fundus vein of the mice at pre-dose and at 2, 15, 30, 60, 120, 240, 480, and 1440 minutes post-dose. Oral gavage group: Three ICR mice, weighing 20 g+2 g, were administered the oral gavage dosing solution. The dosing volume was 20 mL/kg, with doses of 10 mg/kg and 30 mg/kg. Blood samples (0.03 mL) were collected from the fundus vein of the mice at pre-dose and at 5, 15, 30, 60, 120, 240, 480, and 1440 minutes post-dose. The blood samples were centrifuged at 6800 g for 6 minutes at 2-8° C. The plasma was collected and stored in centrifuge tubes at -70° C. for later analysis. A 19 μL aliquot of blank mouse plasma was taken, and 1 μL of the standard curve working solution was added to prepare a series of concentration samples at 1, 0.5, 0.2, 0.1, 0.05, 0.01, 0.005, and 0.001 μg/mL. The mixture was vortexed and mixed well, and 400 μL of methanol containing an internal standard (Warfarin, 100 ng/mL) was added to precipitate the proteins. The mixture was vortexed and shaken for 1 minute, centrifuged at 18000 g for 7 minutes at 4° C., and the supernatant was transferred to a 96-well plate for injection. A 20 μL aliquot of the plasma sample was mixed with 400 μL of methanol containing an internal standard (Warfarin, 100 ng/mL) to precipitate the proteins. The mixture was vortexed for 10 minutes, centrifuged at 18000 g for 7 minutes at 4° C., and 400 μL of the supernatant was transferred to a 96-well plate for a 10 μL injection. Liquid chromatography system: Acquity UPLC system (including a binary solvent manager, sample manager, column heater, and degasser) from Waters Corporation, USA. MS/MS system: QTRAP® 6500+ triple quadrupole mass spectrometer equipped with an electrospray ionization (ESI) source from Sciex Corporation, USA. Analytical column: BEH C18 column, 1.7 μm, 50×2.1 mm I.D., from Waters Corporation, USA. Flow rate: 0.60 mL/min; injection volume: 10 μL; column temperature: 40° C. The gradient elution program used was as follows: The ion source was an electrospray ionization source (Turbo Ionspray, ESI); the ion spray voltage was […]; the temperature was 500° C.; the ion source gas 1 (N2) pressure was 50 psi; the ion source gas 2 (N2) pressure was 50 psi; the curtain gas (N2) pressure was 20 psi; the collision gas pressure (CAD) was Medium; detection was performed in positive ion mode; the scan type was multiple reaction monitoring (MRM).

[5] = intravenous injection, dose 3 (3 mg/kg in method)
[6] = oral, dose 30 (30 mg/kg in method)

Chain of GTP-KRAS-WT:SOS1 (P01116-2 other isoform, or with tags, fused parts or gaps): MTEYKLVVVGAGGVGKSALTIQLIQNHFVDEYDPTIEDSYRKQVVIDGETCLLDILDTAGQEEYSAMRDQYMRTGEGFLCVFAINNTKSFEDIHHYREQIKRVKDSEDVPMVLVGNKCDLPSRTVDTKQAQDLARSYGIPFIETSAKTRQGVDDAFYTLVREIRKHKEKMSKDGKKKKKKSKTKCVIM
Chain of GTP-KRAS-G12D:CRAF (P01116-2 other isoform, or with tags, fused parts or gaps G12D): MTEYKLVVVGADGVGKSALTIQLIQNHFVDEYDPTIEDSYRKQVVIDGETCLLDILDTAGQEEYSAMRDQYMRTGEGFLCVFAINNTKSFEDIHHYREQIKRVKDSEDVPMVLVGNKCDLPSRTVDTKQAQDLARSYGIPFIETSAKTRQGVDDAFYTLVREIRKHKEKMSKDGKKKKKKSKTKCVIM
Chain of GTP-KRAS-G12D:SOS1 (P01116-2 other isoform, or with tags, fused parts or gaps G12D): as above

CC1CC2(CCc3c(nc(OC[C@@]45CCCN4C[C@H](F)C5)nc3N3C[C@H]4CC[C@@H](C3)N4)C2)c2cc(O)cc(Cl)c21 (single isomer, unassigned) [Compound 7aa, (1R or 1S, 3R or 3S)-4′-((1R,5S)-3,8-diazabicyclo[3.2.1]octan-3-yl)-4-chloro-2′-(((2R,7aS)-2-fluorotetrahydro-1H-pyrrolizin-7a(5H)-yl)methoxy)-3-methyl-2,3,5′,8′-tetrahydro-6′H-spiro[indene-1,7′-quinazolin]-6-ol dihydrochloride]
IC50 ([1]; dihydrochloride): 9.95 nM | IC50 ([2]; dihydrochloride): 233 nM | IC50 ([3]; dihydrochloride): 16.4 nM

CCc1cccc2cc(O)cc(-c3c(F)c4c5c(nc(OC[C@@]67CCCN6C[C@H](F)C7)nc5c3F)N3CC5CCC(N5)C3CCO4)c12 (single isomer, unassigned) [13a′, 4-((2S or 2R,6aS,7S,10R)-1,3-Difluoro-14-(((2R,7aS)-2-fluorotetrahydro-1H-pyrrolizin-7a(5H)-yl)methoxy)-5,6,6a,7,8,9,10,11-octahydro-7,10-epiminoazepino[1′,2′: 5,6][1,5]oxazocino[4,3,2-de]quinazolin-2-yl)-5-ethylnaphthalen-2-ol]
Area under curve [4, 5]: 2062.35 (h) * (ng/mL) | Maximum plasma concentration [4, 5]: 3563.93 ng/mL | Area under curve [4, 6]: 3091.66 (h) * (ng/mL) | Maximum plasma concentration [4, 6]: 781.43 ng/mL | clearance [4, 5]: 6.5 mL/min/kg | half-life [4, 5]: 15.9 h | MRT [4, 5]: 4.73 h | Vd [4, 5]: 5.33 L/kg | bioavailability [4, 6]: 15% | half-life [4, 6]: 4.68 h | MRT [4, 6]: 4.53 h | IC50 [1]: 28.2 nM

CCc1cccc2cc(O)cc(-c3c(F)c4c5c(nc(OC[C@]67C[C@@H](F)CN6C[C@@H](COC)C7)nc5c3F)N3CC5CCC(N5)C3CO4)c12 (single isomer, unassigned) [Compound 18b, 4-((2S or 2R,5aS,6S,9R)-1,3-difluoro-13-(((2R,6S,7aS)-2-fluoro-6-(methoxymethyl)tetrahydro-1H-pyrrolizin-7a(5H)-yl)methoxy)-5a,6,7,8,9,10-hexahydro-5H-6,9-epiminoazepino[2′,1′:3,4][1,4]oxazepino[5,6,7-de]quinazolin-2-yl)-5-ethylnaphthalen-2-ol dihydrochloride]
Area under curve [4, 5]: 1944.73 (h) * (ng/mL) | Maximum plasma concentration [4, 5]: 7632.72 ng/mL | Area under curve [4, 6]: 1904.95 (h) * (ng/mL) | Maximum plasma concentration [4, 6]: 508.76 ng/mL | clearance [4, 5]: 24.5 mL/min/kg | half-life [4, 5]: 11.8 h | MRT [4, 5]: 1.41 h | Vd [4, 5]: 4.98 L/kg | bioavailability [4, 6]: 9.8% | half-life [4, 6]: 3.57 h | MRT [4, 6]: 3.77 h | IC50 [1]: 7.5 nM

Oc1cc(Cl)c2c(c1)C1(CC2)CCc2c(nc(OC[C@@]34CCCN3C[C@H](F)C4)nc2N2CC3CCC(C2)N3)C1F (single isomer, unassigned) [Compound 8d, (1R or 1S, 8'S or 8′R)-4′-((1R,5S)-3,8-diazabicyclo[3.2.1]octan-3-yl)-4-chloro-8′-fluoro-2′-(((2R,7aS)-2-fluorotetrahydro-1H-pyrrolizin-7a(5H)-yl)methoxy)-2,3,5′,8′-tetrahydro-6′H-spiro[indene-1,7′-quinazolin]-6-ol dihydrochloride]
IC50 [1]: 115 nM | IC50 [2]: 4750 nM | IC50 [3]: 491 nM

CC1CC2(CCc3c(nc(OC[C@@]45CCCN4C[C@H](F)C5)nc3N3C[C@H]4CC[C@@H](C3)N4)C2)c2cc(O)cc(Cl)c21 (single isomer, unassigned) [Compound 7ab, (1R or 1S, 3S or 3R)-4′-((1R,5S)-3,8-diazabicyclo[3.2.1]octan-3-yl)-4-chloro-2′-(((2R,7aS)-2-fluorotetrahydro-1H-pyrrolizin-7a(5H)-yl)methoxy)-3-methyl-2,3,5′,8′-tetrahydro-6′H-spiro[indene-1,7′-quinazolin]-6-ol dihydrochloride]
IC50 ([1]; dihydrochloride): 17.4 nM | IC50 ([2]; dihydrochloride): 582 nM | IC50 ([3]; dihydrochloride): 84.8 nM

CC1CC2(CCc3c(nc(OC[C@@]45CCCN4C[C@H](F)C5)nc3N3CC4CCC(C3)N4)C2)c2cc(O)cc(Cl)c21 (single isomer, unassigned) [Compound 7a, (1R or 1S)-4′-((1R,5S)-3,8-Diazabicyclo[3.2.1]octan-3-yl)-4-chloro-2′-(((2R,7aS)-2-fluorotetrahydro-1H-pyrrolizin-7a(5H)-yl)methoxy)-3-methyl-2,3,5′,8′-tetrahydro-6′H-spiro[indene-1,7′-quinazolin]-6-ol dihydrochloride]
IC50 [1]: 21.5 nM | IC50 [2]: 246 nM | IC50 [3]: 24 nM

CCc1cccc2cc(O)cc(-c3c(F)c4c5c(nc(OC[C@]67C[C@@H](F)CN6C[C@@H](CN6C[C@@H](C)O[C@@H](C)C6)C7)nc5c3F)N3CC5CCC(N5)C3CO4)c12 (single isomer, unassigned) [Compound 25b, 4-((2S or 2R)-13-(((2R,6R,7aS)-2-(((2R,6S)-2,6-dimethylmorpholino)methyl)-6-fluorotetrahydro-1H-pyrrolizin-7a(5H)-yl)methoxy)-1,3-difluoro-5a,6,7,8,9,10-hexahydro-5H-6,9-epiminoazepino[2′,1′:3,4][1,4]oxazepino[5,6,7-de]quinazolin-2-yl)-5-ethylnaphthalen-2-ol trihydrochloride]
Area under curve [4, 5]: 7940.26 (h) * (ng/mL) | Maximum plasma concentration [4, 5]: 22039.3 ng/mL | Area under curve [4, 6]: 2365.19 (h) * (ng/mL) | Maximum plasma concentration [4, 6]: 863.75 ng/mL | clearance [4, 5]: 6.33 mL/min/kg | half-life [4, 5]: 12.2 h | MRT [4, 5]: 1.01 h | Vd [4, 5]: 0.84 L/kg | bioavailability [4, 6]: 2.98% | half-life [4, 6]: 3.81 h | MRT [4, 6]: 3.15 h | IC50 [1]: 6.72 nM

From patent US20250197424A1, “QUINOLINE COMPOUND AND USE THEREOF” (SHANGHAI PHARMACEUTICALS HOLDING CO., LTD., priority 2022, published 2025)
